Test results from patent US20250346643A1, “TROPOMYOSIN KINASE RECEPTOR (TRK) LIGANDS AS THERAPEUTICS TO SUPPORT LIVER REGENERATION” (Vanderbilt University, priority 2024, published 2025).
Like-named read-outs stand apart in the source and are kept apart here.

Columns and labels:
[1] = system: P-TRKA Tyr674/675, P-TRKB Tyr706/707; assay: Western blot of phosphorylated TRK in HepG2 cell lysates; format: cell-based, human; conditions: HepG2, NTF3 (FIG. 9G-H)
Procedure: Human HepG2 and mouse AML12 cells were grown in 6-well plates. […] Lyophilized NTF3 was solubilized with sterile filtered PBS supplemented with 0.1% BSA, aliquoted and stored at −80° C. until use. […] Cell lysates were sonicated and centrifuged for 10 min at 18,800×g. Protein concentration of supernatants were determined by Direct Detect Spectrophotometer (MilliporeSigma, Burlington, MA).
For immunoblot analysis, 30-50 μg of protein diluted in LSD sample buffer (Invitrogen, Waltham, MA) were analyzed per SDS-PAGE (NuPAGE™, Invitrogen, Waltham, MA) using MOPS buffer or MES buffer (Invitrogen, Waltham, MA). Gels were stained with Coomassie (Bio-Safe Coomassie G-250 Stain, Bio-Rad, Hercules, CA) and transferred onto PVDF membranes using semi-dry blotting (Trans-Blot SD, Bio-Rad, Hercules, CA). Images were visualized on an Amersham™ Imager 680 (Cytiva, Marlborough, MA).

CCND1 = assay: Western blot of CCND1 in HepG2 cell lysates; format: cell-based, human
Procedure: Human HepG2 and mouse AML12 cells were grown in 6-well plates. Cells were treated with NTF3 (20 ng/ml) purchased from STEMCELL technologies, Vancouver, Canada (cat. 78074), R&D Systems, Minneapolis, MN (267-N3), Gibco, Waltham, MA (PHC7036) and/or Loxo-195 (5-10 nM) (Selleckchem, Houston, TX; S8636) in complete growth media without L-glutamine for 2 hours. Lyophilized NTF3 was solubilized with sterile filtered PBS supplemented with 0.1% BSA, aliquoted and stored at −80° C. until use. […] HepG2 and AML12 cells were collected on ice in PBS, centrifuged for 10 sec […] cell pellet homogenized in RIPA buffer containing inhibitors (Roche, Basel, Switzerland; complete Mini proteinase inhibitor, 1×HALT phosphatase inhibitors, Thermo Scientific, Waltham, MA; cat. 78428). Cell lysates were sonicated and centrifuged for 10 min at 18,800×g. Protein concentration of supernatants were determined by Direct Detect Spectrophotometer (MilliporeSigma, Burlington, MA).
For immunoblot analysis, 30-50 μg of protein diluted in LSD sample buffer (Invitrogen, Waltham, MA) were analyzed per SDS-PAGE (NuPAGE™, Invitrogen, Waltham, MA) using MOPS buffer or MES buffer (Invitrogen, Waltham, MA). Gels were stained with Coomassie (Bio-Safe Coomassie G-250 Stain, Bio-Rad, Hercules, CA) and transferred onto PVDF membranes using semi-dry blotting (Trans-Blot SD, Bio-Rad, Hercules, CA). Images were visualized on an Amersham™ Imager 680 (Cytiva, Marlborough, MA). Semi-quantitative band densitometry was performed using ImageJ software (version 1.53).

[2] = system: liver regeneration after partial hepatectomy; format: in vivo, mouse
Procedure: Partial hepatectomy. All surgeries were performed per the National Institutes of Health recommendations contained in the Guide for the Care and Use of Laboratory. Mice were anesthetized with isoflurane and received preoperative extended-release buprenorphine subcutaneous (s.c.) for analgesia and eye ointment for protection. […] The evisceration of the median and left lateral lobes allowed suture ligation and ˜70% hepatectomy. Skin and abdominal muscles were closed in a two-step procedure. Mice were euthanized 1 h, 24 h, 2 days, 3 days, and 4 days after partial hepatectomy, and tissues were collected for processing. To test if recombinant NTF3 promotes liver regeneration, mice were injected intravenous (i.v.) with recombinant NTF3 (STEMCELL Technologies, Vancouver, Canada; catalog no. 78074, lot nos. 1000070683 and 1000077434) diluted in sterile 0.9% saline (0.9% NaCl) or vehicle only at approximately 1 hour prior to partial hepatectomy. Mice were then injected i.v. once per day with recombinant NTF3 or vehicle at 20 ng/g body weight until sacrifice. Lyophilized NTF3 was solubilized in 0.1% BSA/PBS (Sigma-Aldrich, St. Louis, MO; A3059) and stored at −80° C. until use.
Serum chemistry. Whole blood was collected in blood collection tubes supplemented with lithium heparin (BD vacutainer, Franklin Lakes, NJ; Cat.366664). Blood was centrifuged at 4000 g for 15 min and the plasma collected and stored at −80° C. until analysis. Plasma was analyzed on a VetScan® vs2 (Abaxis, Union City, CA) using mammalian liver profile analysis discs (Abaxis, Union City, CA; 500-0040) according to the manufacturer's instructions.
Immunohistochemistry. For immunohistochemistry, formalin-fixed paraffin-embedded (FFPE) sections were cut at a 4-μm thickness, and slides were incubated at 65° C. for 30 min. Slides were deparaffinized in Histo-Clear® (National Diagnostics, Charlotte, NC; HS2001GLL) and rehydrated by an ethanol gradient. Heat antigen retrieval was performed in 10 mM sodium citrate (pH 6.0) in a pressure cooker (Cuisinart®, CPC-600C), for 20 min at high pressure, natural pressure release for 30 min, and cooled at room temperature for 30 min. Endogenous peroxidase quenching was performed with 1.5% hydrogen peroxide (Sigma-Aldrich, St. Louis, MO; H1009) for 20 min, and slides were washed twice in PBS. Blocking was performed for 30 min with Protein Block, Serum-free (Agilent, Santa Clara, CA; X090930-2). The primary antibody was diluted in antibody diluent (Agilent, Santa Clara, CA; S080983-2) and applied to the slides in a wet chamber overnight at 4° C. After two washes in PBS, slides were incubated with the appropriate secondary antibody for 30 min, followed by two washes in PBS. […] The same reveal time was then used on all experimental slides. Slides were stained with hematoxylin (Sigma-Aldrich, St. Louis, MO; GHS332) for 30 s, washed gently in lukewarm tap water for 5 min, and washed twice in distilled water, followed by two washes in PBS (pH 7.4). Slides were washed in increasing ethanol/water gradients, followed by three washes in Histo-Clear®. Whole-slide scans for subsequent analyses and publishing were obtained using an SCN400 slide scanner (Leica, Wetzlar, Germany). Whole-slide images were processed and annotated in QuPath 0.5.1.

[3] = 2 days after partial hepatectomy, NTF3 20 ng/g i.v. once per day
[4] = 4 days after partial hepatectomy, NTF3 20 ng/g i.v. once per day

Q: What does the source list for “NTF3: neurotrophin-3, recombinant protein; HSC-derived hepatocyte mitogen, ligand of TRKA, TRKB, TRKC”?
A: TRK phosphorylation (P-TRKA Tyr674/675, P-TRKB Tyr706/707) [1]: Increased TRK phosphorylation; CCND1 amounts, NTF3 from three different vendors (CCND1; HepG2 (FIG. 9K-L)): CCND1 amounts increased; CCND1 abundance (CCND1; HepG2, NTF3 20 ng/ml, 2 hours (FIG. 8I-J)): increased CCND1 abundance; liver to body weight ratio vs vehicle [2, 3]: similar; number of Ki67+ hepatocytes vs vehicle [2, 3]: significantly increased; number of Ki67+ hepatocytes vs vehicle ([2]; 4 days after partial hepatectomy): increased number; liver to body weight ratio vs controls [2, 4]: significantly increased; relative increase of liver to body weight ratio compared to controls [2, 4]: 10-23%; adverse effects ([2]; mouse, in vivo): no adverse effects; serum ALP vs vehicle ([2]; mouse, in vivo): similar; serum ALT vs vehicle ([2]; mouse, in vivo): similar; serum albumin vs vehicle ([2]; mouse, in vivo): similar
